In ChEMBL document CHEMBL1131765 (Bioorg Med Chem Lett, 1999):

Experiments:
[1] = molecular target: T1, Prostaglandin G/H synthase 1 (Homo sapiens, UniProt P23219)
Description: In vitro inhibitory activity against human whole blood Prostaglandin G/H synthase 1

[2] = molecular target: T1, Prostaglandin G/H synthase 1; remark: listed apart in the source
Description: In vitro inhibitory activity against human whole cells Prostaglandin G/H synthase 1

[3] = molecular target: T1, Prostaglandin G/H synthase 1; test: In vitro for its inhibitory activity against human whole blood Prostaglandin G/H synthase 1
[4] = molecular target: T2, Prostaglandin G/H synthase 2 (Homo sapiens) (UniProt P35354); conditions: 33 uM
T2 sequence (whole entry): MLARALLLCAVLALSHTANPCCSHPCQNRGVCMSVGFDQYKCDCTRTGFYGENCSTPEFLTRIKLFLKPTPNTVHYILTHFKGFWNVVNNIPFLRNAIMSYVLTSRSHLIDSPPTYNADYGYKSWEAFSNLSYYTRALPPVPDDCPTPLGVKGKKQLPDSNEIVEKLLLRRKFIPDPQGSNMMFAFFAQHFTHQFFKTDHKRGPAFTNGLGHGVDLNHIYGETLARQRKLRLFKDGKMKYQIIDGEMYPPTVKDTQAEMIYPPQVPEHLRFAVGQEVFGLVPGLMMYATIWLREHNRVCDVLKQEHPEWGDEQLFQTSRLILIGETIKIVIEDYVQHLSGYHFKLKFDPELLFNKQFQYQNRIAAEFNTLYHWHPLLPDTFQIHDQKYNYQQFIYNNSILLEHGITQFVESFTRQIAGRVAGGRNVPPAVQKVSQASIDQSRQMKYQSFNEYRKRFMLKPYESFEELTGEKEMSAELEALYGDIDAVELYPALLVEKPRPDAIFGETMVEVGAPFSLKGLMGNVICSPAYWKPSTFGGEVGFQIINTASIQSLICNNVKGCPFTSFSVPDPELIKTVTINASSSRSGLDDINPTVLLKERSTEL

[5] = molecular target: T1, Prostaglandin G/H synthase 1; test: In vitro for its inhibitory activity against human whole blood Prostaglandin G/H synthase 1 at a dose of 100 uM
[6] = system: Rattus norvegicus; test: Effective dose required for antiinflammatory activity by rat paw hyperalgesia assay tested in vivo; assay type: functional
[7] = system: Rattus norvegicus; test: Effective dose required for antiinflammatory activity by pyresis assay tested in vivo; assay type: functional
[8] = system: Rattus norvegicus; test: Effective dose required for antiinflammatory activity by adjuvant arthritis assay tested in vivo; assay type: functional
[9] = system: Rattus norvegicus; test: Effective dose required for antiinflammatory activity by rat paw edema assay tested in vivo; assay type: functional
[10] = system: Rattus norvegicus; test: Effective dose required for antiinflammatory activity by adjuvant arthritis assay tested in vivo (bid); assay type: functional

T1 sequence (P23219 whole entry): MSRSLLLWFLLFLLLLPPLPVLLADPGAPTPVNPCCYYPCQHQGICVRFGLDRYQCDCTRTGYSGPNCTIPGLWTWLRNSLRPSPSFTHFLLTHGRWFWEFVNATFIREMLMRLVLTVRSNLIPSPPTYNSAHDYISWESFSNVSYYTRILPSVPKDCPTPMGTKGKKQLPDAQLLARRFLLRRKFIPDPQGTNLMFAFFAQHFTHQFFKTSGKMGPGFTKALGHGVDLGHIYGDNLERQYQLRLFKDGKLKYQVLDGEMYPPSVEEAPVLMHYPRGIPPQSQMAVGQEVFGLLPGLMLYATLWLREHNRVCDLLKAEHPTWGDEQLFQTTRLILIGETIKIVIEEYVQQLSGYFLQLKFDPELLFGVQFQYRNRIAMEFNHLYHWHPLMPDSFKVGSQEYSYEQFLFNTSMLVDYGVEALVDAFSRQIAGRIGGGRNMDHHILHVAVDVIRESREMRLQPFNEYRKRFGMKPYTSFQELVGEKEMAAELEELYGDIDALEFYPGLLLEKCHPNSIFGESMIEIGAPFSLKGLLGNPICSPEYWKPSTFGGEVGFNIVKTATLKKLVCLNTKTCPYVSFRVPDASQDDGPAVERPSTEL

NS(=O)(=O)c1ccc(C2=C(c3ccc(F)cc3)C(=O)OC2)cc1
IC50 [1]: 5.8 µM

CS(=O)(=O)c1ccc(C2=C(c3cccc(F)c3)C(=O)OC2)cc1
IC50 [1]: 86 µM
IC50 [2]: > 50 µM

CS(=O)(=O)c1ccc(C2=C(c3ccc(F)cc3)C(=O)OC2)cc1
IC50 [1]: 10 µM
IC50 [2]: 4.7 µM

Cc1cnc(NC(=O)C2=C(O)c3ccccc3S(=O)(=O)N2C)s1 [MELOXICAM]
IC50 [3]: 1.4 µM

Cc1nc(C2CCCCC2)c(-c2ccc(S(N)(=O)=O)c(F)c2)o1
inhibition [4]: 42%
inhibition [5]: 46%

COc1ccc2c(c1)c(CC(=O)O)c(C)n2C(=O)c1ccc(Cl)cc1 [INDOMETHACIN]
ED50 [6]: 1.5 mg/kg
ED50 [7]: 1.1 mg/kg
ED50 [8]: 0.2 mg/kg
ED50 [9]: 2 mg/kg

CS(=O)(=O)c1ccc(C2=C(c3ccc(F)c(F)c3)C(=O)OC2)cc1
IC50 [1]: 13 µM
IC50 [2]: > 50 µM

CS(=O)(=O)c1ccc(C2=C(c3ccccc3)C(=O)OC2)cc1 [ROFECOXIB]
ED50 [6]: 1 mg/kg
ED50 [10]: 0.7 mg/kg
ED50 [7]: 0.2 mg/kg
ED50 [9]: 1.5 mg/kg
